The record followed here is patent US6667163B2, “Polynucleotide sequences encoding mouse sphingosine-1-phosphate phosphatase” (Merck & Co., Inc., priority 2000, dated 2003).

For one data set, the target named is T1, mSPP1 (Mus musculus, UniProt Q9JI99).
T1 construct: expressed in transfected cells; host or cells: HEK293 (human embryonic kidney), transient CaCl2 transfection with mSPP1-pcDNA3.1; membrane pellet (40,000 x g)
T1 sequence (Q9JI99 1-430): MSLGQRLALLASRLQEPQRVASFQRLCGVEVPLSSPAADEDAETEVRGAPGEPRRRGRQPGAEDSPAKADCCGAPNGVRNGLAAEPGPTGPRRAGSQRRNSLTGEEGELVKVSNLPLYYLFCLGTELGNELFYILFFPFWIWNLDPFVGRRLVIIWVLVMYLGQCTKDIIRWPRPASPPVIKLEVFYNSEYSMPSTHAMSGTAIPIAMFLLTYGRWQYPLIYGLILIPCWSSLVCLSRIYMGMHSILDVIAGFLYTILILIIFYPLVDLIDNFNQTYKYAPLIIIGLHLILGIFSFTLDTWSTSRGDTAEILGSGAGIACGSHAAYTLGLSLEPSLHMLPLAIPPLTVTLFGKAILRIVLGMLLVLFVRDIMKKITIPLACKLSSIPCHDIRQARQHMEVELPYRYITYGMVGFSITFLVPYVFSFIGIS
The experiment in a line: Substrate degradation by membrane fractions from HEK293 cells transfected with mSPP1. The data set is classed as biochemical, murine.

The subject of data set [1] is Yeast (lbp1Δ::LEU2 sur2-2). The experiment in a line: Australifungin sensitivity, microtiter broth dilution assay in transformed yeast. The data set is classed as cell-based. On the procedure:
Yeast cells defective in LBP1 shunt sphingolipid metabolites into phosphatidylethanolamine and phosphatidylcholine synthesis and become extremely sensitive to ceramide synthase inhibition by the antifungal agent, australifungin. To test whether the mouse SPP phosphatases can substitute for the function of LBP1, mSPP1pRS414-ADH, mSPP1bpRS414-ADH, or control vector (pRS414-ADH) were transformed into lbp1Δ::LEU2sur2-2 and sensitivity to australifungin was determined using a microtiter broth dilution assay. Transformants were incubated overnight in Synthetic Complete-Tryptophan (SC-TRP) Yeast Nitrogen Base medium (DIFCO) containing 2% glucose and 0.078% tryptophan-free supplement mixture (BIO101) at […]. Cells were inoculated at an OD600=0.001 (˜1×10^4 yeast cells/ml), and serial 2-fold dilutions of australifungin were made from 5 μg/ml. Growth after 48 h at 30° C. was measured by absorbance readings with a Rainbow spectrometer (TECAN).

In data set [2] the test system is [3H]dihydrosphingosine-1-phosphate. The experiment in a line: Dihydrosphingosine phosphate phosphohydrolase activity in membranes of transfected HEK293 cells. It is filed as biochemical, Human. The following applies: compared to vector transfected cells or mSPP1b transfected cells. The procedure:
Microsomal membranes were collected by ultracentrifugation (100,000×g, 1 hour) and suspended in disruption buffer containing 20% glycerol. Dihydrosphingosine-1-phosphate phosphohydrolase activity was measured in 200 μl containing 50 mM KPO4 pH 7.2, 0.02% tergitol (NP-40), 2 μM [^3H]dihydrosphingosine-1-phosphate (40,000 cpm), 2 mM semicarbazide, and 0.3 to 5 μg of membrane protein. Following a 45 min incubation at 37° C., the assay was terminated with 200 μl 7 M NH4OH. One ml of chloroform:methanol (3:2) was added and 50 μl of the chloroform layer was counted by liquid scintillation.
Transfection-quality DNA was prepared for plasmids mSPP1-pcDNA3.1 and mSPP1b-pcDNA3.1 using endotoxin-free QIAGEN Maxi protocol (QIAGEN, Chatsworth, Calif.). Human embryonic kidney (HEK293) cells were maintained in high glucose Dulbecco's modified Eagle's medium (DMEM) containing 100 U/ml penicillin, 100 μg/ml streptomycin and 2 mM L-glutamine supplemented with 10% fetal bovine serum. Cells (1×10^6) were transfected with 20 μg of plasmid DNA by the CaCl2 procedure using a kit from SPECIALTY MEDIA (Lavallette, N.J.). Cells were harvested 48 hours after transfection with enzyme-free dissociation solution (SPECIALTY MEDIA, Lavallette, N.J.). […] Dihydrosphingosine phosphate phosphohydrolase activity was measured as described in Example 4.

The next data set concerns NIH 3T3 fibroblasts. The experiment in a line: Enforced expression of mSPP1 in NIH 3T3 fibroblasts: survival and apoptosis. It is filed as cell-based. As to conditions: enforced expression in NIH 3T3 fibroblasts.
Data set [3] concerns [3H]dihydrosphingosine-1-phosphate. The experiment in a line: Dihydrosphingosine-1-phosphate phosphohydrolase activity in microsomal membranes of transformed yeast. The data set is classed as biochemical. The following applies: yeast lbp1Δ::LEU2 sur2-2 expressing the protein, compared to the vector control. The text has this:
To test whether mSPP1 and mSPP1b encoded SPP phosphatases with properties similar to yeast Lbp1p, the mouse genes were subcloned into pRS414-ADH for expression of the genes in LBP1 mutants under the control of a strong, constitutive yeast promoter (ADH). The resulting plasmids were mSPP1pRS414-ADH and mSPP1bpRS414-ADH. Yeast (lbp1Δ::LEU2 sur2-2) were transformed with mSPP1pRS414-ADH, mSPP1bpRS414-ADH, or control vector (pRS414-ADH) using the lithium acetate/polyethylene glycol procedure and plated onto Synthetic Complete-Tryptophan (SC-TRP) Yeast Nitrogen Base medium (DIFCO) containing 1.5% agar, 2% glucose and 0.078% tryptophan-free supplement mixture (BIO101). Transformants were inoculated into SC-TRP media and incubated overnight at 30° C. to an OD600 of 1.0. […]
Microsomal membranes were collected by ultracentrifugation (100,000×g, 1 hour) and suspended in disruption buffer containing 20% glycerol. Dihydrosphingosine-1-phosphate phosphohydrolase activity was measured in 200 μl containing 50 mM KPO4 pH 7.2, 0.02% tergitol (NP-40), 2 μM [^3H]dihydrosphingosine-1-phosphate (40,000 cpm), 2 mM semicarbazide, and 0.3 to 5 μg of membrane protein. […] One ml of chloroform:methanol (3:2) was added and 50 μl of the chloroform layer was counted by liquid scintillation.

`CCCCCCCCCCCCC/C=C/[C@@H](O)[C@@H](N)COP(=O)(O)O` [SPP, Sphingosine-1-phosphate]: the “degradation of substrate by mSPP1 membrane fractions” value on mSPP1 is on record as “markedly degraded”.
Regarding `CCCCCC[C@@H](C)C1=C(O)C(=O)[C@@H]2[C@H](O)[C@H](C)C[C@H](O)[C@H]2[C@]1(C)C(=O)/C=C\O` [australifungin], the “increase in the MIC90 of australifungin” value in data set [1] (lbp1Δsur2-2 mutant expressing mSPP1, compared to vector transformed mutants, growth after 48 h at 30° C.) was determined as 64 fold. The australifungin sensitivity entry in data set [1] (lbp1Δsur2-2 mutant expressing mSPP1b) is given as “did not alter”.
Regarding ceramide-1-phosphate, the “degradation of substrate by mSPP1 membrane fractions” value on mSPP1 was “not”.
The same measure, in the same setting: then lysophosphatidic acid, with “not”.
The same measure, in the same setting: under phosphatidic acid stands “not”.

B1: mSPP1: murine sphingosine-1-phosphate phosphatase, recombinant enzyme having the amino acid sequence of SEQ ID NO:3 (protein)
chain: MSLGQRLALLASRLQEPQRVASFQRLCGVEVPLSSPAADEDAETEVRGAPGEPRRRGRQPGAEDSPAKADCCGAPNGVRNGLAAEPGPTGPRRAGSQRRNSLTGEEGELVKVSNLPLYYLFCLGTELGNELFYILFFPFWIWNLDPFVGRRLVIIWVLVMYLGQCTKDIIRWPRPASPPVIKLEVFYNSEYSMPSTHAMSGTAIPIAMFLLTYGRWQYPLIYGLILIPCWSSLVCLSRIYMGMHSILDVIAGFLYTILILIIFYPLVDLIDNFNQTYKYAPLIIIGLHLILGIFSFTLDTWSTSRGDTAEILGSGAGIACGSHAAYTLGLSLEPSLHMLPLAIPPLTVTLFGKAILRIVLGMLLVLFVRDIMKKITIPLACKLSSIPCHDIRQARQHMEVELPYRYITYGMVGFSITFLVPYVFSFIGIS
On to B1, for which, in data set [2], the “increase in dihydrosphingosine phosphate phosphohydrolase activity” value is 4 to 5 fold. In addition, in the data set with NIH 3T3 fibroblasts, the apoptosis result is on record as “induced the characteristic traits of apoptosis” and the cell survival result is “markedly decreased survival”. Further, the “increase in membrane dihydrosphingosine-1-phosphate phosphohydrolase activity” value in data set [3] is 3 to 4 fold.

B2: mSPP1b: murine mSPP1b protein of SEQ ID NO:4, divergent 5′ end, lacks the activity of mSPP1; counterscreen or negative control (protein)
chain: MGEELGHCVQMRKSNERGKRFREQRVQRAQGKVSHHTKEEEETRVRQMSQGWEEKEYGYYLFCLGTELGNELFYILFFPFWIWNLDPFVGRRLVIIWVLVMYLGQCTKDIIRWPRPASPPVIKLEVFYNSEYSMPSTHAMSGTAIPIAMFLLTYGRWQYPLIYGLILIPCWSSLVCLSRIYMGMHSILDVIAGFLYTILILIIFYPLVDLIDNFNQTYKYAPLIIIGLHLILGIFSFTLDTWSTSRGDTAEILGSGAGIACGSHAAYTLGLSLEPSLHMLPLAIPPLTVTLFGKAILRIVLGMLLVLFVRDIMKKITIPLACKLSSIPCHDIRQARQHMEVELPYRYITYGMVGFSITFLVPYVFSFIGIS
In the case of B2, in data set [3], the “increase in membrane dihydrosphingosine-1-phosphate phosphohydrolase activity” value is recorded as “same level of phosphohydrolase activity as control”.
